Experimental data: patent US11672251B2, “Herbicidally active pyridyl-/pyrimidyl-pyrimidine derivatives” (Syngenta Participations AG, priority 2017, dated 2023)

Experiments:
Type in all cases: in vivo
[1] = tested on: Abutilon theophrasti (ABUTH); assay: B1 pre-emergence herbicidal activity; details: Test 1a, rate 1000 g/ha, evaluated after 13 days, scale 5=total damage to plant, 0=no damage to plant
Method: (§1) Seeds of a variety of test species were sown in standard soil in pots: Triticum aestivium (TRZAW), Avena fatua (AVEFA), Alopecurus myosuroides (ALOMY), Echinochloa crus-galli (ECHCG), Lolium perenne (LOLPE), Zea Mays (ZEAMX), Abutilon theophrasti (ABUTH), Amaranthus retroflexus (AMARE) and Setaria faberi (SETFA). After cultivation for one day (pre-emergence) under controlled conditions in a glasshouse (at 24/16° C., day/night; 14 hours light; 65% humidity), the plants were sprayed with an aqueous spray solution derived from the formulation of the technical active ingredient in acetone/water (50:50) solution containing 0.5% Tween 20 (polyoxyethelyene sorbitan monolaurate, CAS RN 9005-64-5). The test plants were then grown in a glasshouse under controlled conditions (at 24/16° C., day/night; 14 hours light; 65% humidity) and watered twice daily. After 13 days, the test was evaluated (5=total damage to plant; 0=no damage to plant).

[2] = tested on: Amaranthus retroflexus (AMARE); assay: B1 pre-emergence herbicidal activity; details: Test 1a, rate 1000 g/ha, evaluated after 13 days, scale 5=total damage to plant, 0=no damage to plant
Method: as §1

[3] = tested on: Echinochloa crus-galli (ECHCG); assay: B1 pre-emergence herbicidal activity; details: rate 1000 g/ha, evaluated after 13 days, scale 5=total damage to plant, 0=no damage to plant
Method: as §1

Lolium perenne (LOLPE) [4] = assay: B1 pre-emergence herbicidal activity; details: rate 1000 g/ha, evaluated after 13 days, scale 5=total damage to plant, 0=no damage to plant
Method: as §1

Setaria faberi (SETFA) [5] = assay: B1 pre-emergence herbicidal activity; details: rate 1000 g/ha, evaluated after 13 days, scale 5=total damage to plant, 0=no damage to plant
Method: as §1

Zea Mays (ZEAMX) [6] = assay: B1 pre-emergence herbicidal activity; details: Test 1a, rate 1000 g/ha, evaluated after 13 days, scale 5=total damage to plant, 0=no damage to plant
Method: as §1

[7] = tested on: Abutilon theophrasti (ABUTH); assay: B2 post-emergence herbicidal activity; details: Test B2a; post-emergence (sprayed after 8 days cultivation); rate 1000 g/ha; evaluated after 13 days; scale 5=total damage to plant, 0=no damage to plant
Method: (§2) Seeds of a variety of test species were sown in standard soil in pots: Triticum aestivium (TRZAW), Avena fatua (AVEFA), Alopecurus myosuroides (ALOMY), Echinochloa crus-galli (ECHCG), Lolium perenne (LOLPE), Zea Mays (ZEAMX), Abutilon theophrasti (ABUTH), Amaranthus retroflexus (AMARE) and Setaria faberi (SETFA). After 8 days cultivation (post-emergence) under controlled conditions in a glasshouse (at 24/16° C., day/night; 14 hours light; 65% humidity), the plants were sprayed with an aqueous spray solution derived from the formulation of the technical active ingredient in acetone/water (50:50) solution containing 0.5% Tween 20 (polyoxyethelyene sorbitan monolaurate, CAS RN 9005-64-5). The test plants were then grown in a glasshouse under controlled conditions (at 24/16° C., day/night; 14 hours light; 65% humidity) and watered twice daily. After 13 days, the test was evaluated (5=total damage to plant; 0=no damage to plant).

[8] = tested on: Amaranthus retroflexus (AMARE); assay: B2 post-emergence herbicidal activity; details: Test B2a; post-emergence (sprayed after 8 days cultivation); rate 1000 g/ha; evaluated after 13 days; scale 5=total damage to plant, 0=no damage to plant
Method: as §2

[9] = tested on: Echinochloa crus-galli (ECHCG); assay: B2 post-emergence herbicidal activity; details: post-emergence (sprayed after 8 days cultivation), rate 1000 g/ha, evaluated after 13 days, scale 5=total damage to plant, 0=no damage to plant
Method: as §2

Lolium perenne (LOLPE) [10] = assay: B2 post-emergence herbicidal activity; details: post-emergence (sprayed after 8 days cultivation), rate 1000 g/ha, evaluated after 13 days, scale 5=total damage to plant, 0=no damage to plant
Method: as §2

Setaria faberi (SETFA) [11] = assay: B2 post-emergence herbicidal activity; details: post-emergence (sprayed after 8 days cultivation), rate 1000 g/ha, evaluated after 13 days, scale 5=total damage to plant, 0=no damage to plant
Method: as §2

Zea Mays (ZEAMX) [12] = assay: B2 post-emergence herbicidal activity; details: Test B2a; post-emergence (sprayed after 8 days cultivation); rate 1000 g/ha; evaluated after 13 days; scale 5=total damage to plant, 0=no damage to plant
Method: as §2

[13] = tested on: Alopecurus myosuroides (ALOMY); assay: B1 pre-emergence herbicidal activity; details: Test 1b, rate 1000 g/ha, evaluated after 13 days, scale 5=total damage to plant, 0=no damage to plant
Method: as §1

Avena fatua (AVEFA) [14] = assay: B1 pre-emergence herbicidal activity; details: Test 1b, rate 1000 g/ha, evaluated after 13 days, scale 5=total damage to plant, 0=no damage to plant
Method: as §1

[15] = tested on: Triticum aestivium (TRZAW); assay: B1 pre-emergence herbicidal activity; details: Test 1b, rate 1000 g/ha, evaluated after 13 days, scale 5=total damage to plant, 0=no damage to plant
Method: as §1

[16] = tested on: Alopecurus myosuroides (ALOMY); assay: B2 post-emergence herbicidal activity; details: Test B2b; post-emergence (sprayed after 8 days cultivation); rate 1000 g/ha; evaluated after 13 days; scale 5=total damage to plant, 0=no damage to plant
Method: as §2

Avena fatua (AVEFA) [17] = assay: B2 post-emergence herbicidal activity; details: Test B2b; post-emergence (sprayed after 8 days cultivation); rate 1000 g/ha; evaluated after 13 days; scale 5=total damage to plant, 0=no damage to plant
Method: as §2

[18] = tested on: Triticum aestivium (TRZAW); assay: B2 post-emergence herbicidal activity; details: Test B2b; post-emergence (sprayed after 8 days cultivation); rate 1000 g/ha; evaluated after 13 days; scale 5=total damage to plant, 0=no damage to plant
Method: as §2

SMILES | Control after pre-emergence application, damage score: ABUTH [1] | Control after pre-emergence application, damage score: AMARE [2] | Control after pre-emergence application, damage score: ECHCG ([3]; Test 1a) | Control after pre-emergence application, damage score: LOLPE (Lolium perenne (LOLPE) [4]; Test 1a) | Control after pre-emergence application, damage score: SETFA (Setaria faberi (SETFA) [5]; Test 1a) | Control after pre-emergence application, damage score: ZEAMX (Zea Mays (ZEAMX) [6]) | Control after post-emergence application, damage score: ABUTH [7] | Control after post-emergence application, damage score: AMARE [8] | Control after post-emergence application, damage score: ECHCG ([9]; Test B2a) | Control after post-emergence application, damage score: LOLPE (Lolium perenne (LOLPE) [10]; Test B2a) | Control after post-emergence application, damage score: SETFA (Setaria faberi (SETFA) [11]; Test B2a) | Control after post-emergence application, damage score: ZEAMX (Zea Mays (ZEAMX) [12]) | Control after pre-emergence application, damage score: ALOMY [13] | Control after pre-emergence application, damage score: AVEFA (Avena fatua (AVEFA) [14]) | Control after pre-emergence application, damage score: ECHCG ([3]; Test 1b) | Control after pre-emergence application, damage score: LOLPE (Lolium perenne (LOLPE) [4]; Test 1b) | Control after pre-emergence application, damage score: SETFA (Setaria faberi (SETFA) [5]; Test 1b) | Control after pre-emergence application, damage score: TRAZW [15] | Control after post-emergence application, damage score: ALOMY [16] | Control after post-emergence application, damage score: AVEFA (Avena fatua (AVEFA) [17]) | also measured
CNc1cnc(-c2cncc(F)c2)nc1C [Compound D1, 2-(5-fluoro-3-pyridyl)-N,4-dimethyl-pyrimidin-5-amine] | 1 | 1 | 1 | 0 | 3 | 0 | 0 | 0 | 2 | 1 | 3 | 1 |  |  |  |  |  |  |  |  | 
Cc1nc(-c2cncc(F)c2)ncc1N [Compound D2, 2-(5-fluoro-3-pyridyl)-4-methyl-pyrimidin-5-amine] | 1 | 1 | 1 | 0 | 2 | 0 | 1 | 1 | 2 | 1 | 3 | 1 |  |  |  |  |  |  |  |  | 
CCCNc1cnc(-c2cncc(F)c2)nc1C(F)(F)F [Compound D13, 2-(5-fluoro-3-pyridyl)-N-propyl-4-(trifluoromethyl)pyrimidin-5-amine] |  |  |  |  |  |  |  |  |  |  |  |  | 0 | 0 | 1 | 1 | 2 | 1 | 0 | 3 | Control after post-emergence application, damage score: ECHCG ([9]; Test B2b): 4; Control after post-emergence application, damage score: LOLPE (Lolium perenne (LOLPE) [10]; Test B2b): 1; Control after post-emergence application, damage score: SETFA (Setaria faberi (SETFA) [11]; Test B2b): 4; Control after post-emergence application, damage score: TRAZW [18]: 0
CCCN(CCC)c1cnc(-c2cncc(F)c2)nc1C(F)(F)F [Compound D14, 2-(5-fluoro-3-pyridyl)-N,N-dipropyl-4-(trifluoromethyl)pyrimidin-5-amine] |  |  |  |  |  |  |  |  |  |  |  |  | 1 | 0 | 2 | 1 | 2 | 1 | 1 | 3 | Control after post-emergence application, damage score: ECHCG ([9]; Test B2b): 4; Control after post-emergence application, damage score: LOLPE (Lolium perenne (LOLPE) [10]; Test B2b): 2; Control after post-emergence application, damage score: SETFA (Setaria faberi (SETFA) [11]; Test B2b): 4; Control after post-emergence application, damage score: TRAZW [18]: 0
